Reference: patent publication US8431715B2, “Thiazole compound (as PPARδ) ligand and pharmaceutical, cosmetic and health food comprised thereof” (Seoul National University Industry Foundation, priority 2007, dated 2013)

What was measured:
C57BL/6 mice [1] = experiment: Morris water maze test, LPS brain disease animal model; format: in vivo
Procedure: The therapeutic effect of the compound of the present invention on dementia and Parkinson's disease based on the memory improving effect thereof was investigated using brain disease animal model (C57BL/6 mice at 10 weeks). First, LPS was injected into the mouse brain to construct brain disease animal model. The mice were divided into four groups according to the administration and exercise. The exercise was performed with treadmill at the speed of 2 meter/min for the first 5 minutes, at 5 meter/min for 5 minutes, at 8 meter/min for 5 minutes and at 20 meter/min for the last 5 minutes. At the finish, Morris water maze test was performed. As a result, the therapeutic effect of the compound of formula 1 of the present invention on dementia and Parkinson's disease via memory enhancement by the compound and exercise was confirmed in the brain disease animal model.

C57BL/6 mice [2] = experiment: Obesity inhibitory effect, high-fat feed; format: in vivo; conditions: 10 mg/Kg/day oral, 35% fat feed for 35 days; vehicle 58.9%
Procedure: An animal test using mice was performed to confirm the in vivo effect of the compound of the present invention. C57BL/6 (SLC Co.) mice at 14 weeks were used. To induce obesity, feeds containing 35% fat were given.

mice = experiment: Muscle endurance test, treatment during pregnancy and/or lactation, treadmill; format: in vivo
Procedure: An animal test was performed to confirm muscle endurance strengthening and muscle function enhancing effect of the compound of the present invention. Most muscles are generated in the developmental stage. Thus, the compound of formula 1 (10 mg/Kg/day) were orally administered to pregnant mice in the period of either pregnancy or lactation or both pregnancy and lactation. […] Muscles were observed after removing skin. As a result, muscles of the treatment group were red, unlike the controlled one. ATPase staining and immunostaining were performed. As a result, type I muscle fiber was increased in the group treated with the compound of formula 1. The effect of the changes of the muscle fiber on the enhancement of muscle endurance and muscle function was investigated by using treadmill test. As a result, running time was much extended in the group treated with the compound of formula 1.

PPARα = target: T1, PPARα (Homo sapiens, UniProt Q07869); experiment: Transfection assay (luciferase reporter) in CV-1 cells, PPARα; format: cell-based; conditions: 24 hours treatment
T1 construct: Full length PPARs plasmid DNA, reporter DNA confirming PPARs activity owing to its luciferase activity; expressed in transfected cells; host or cells: CV-1 cells
T1 sequence (Q07869 1-468): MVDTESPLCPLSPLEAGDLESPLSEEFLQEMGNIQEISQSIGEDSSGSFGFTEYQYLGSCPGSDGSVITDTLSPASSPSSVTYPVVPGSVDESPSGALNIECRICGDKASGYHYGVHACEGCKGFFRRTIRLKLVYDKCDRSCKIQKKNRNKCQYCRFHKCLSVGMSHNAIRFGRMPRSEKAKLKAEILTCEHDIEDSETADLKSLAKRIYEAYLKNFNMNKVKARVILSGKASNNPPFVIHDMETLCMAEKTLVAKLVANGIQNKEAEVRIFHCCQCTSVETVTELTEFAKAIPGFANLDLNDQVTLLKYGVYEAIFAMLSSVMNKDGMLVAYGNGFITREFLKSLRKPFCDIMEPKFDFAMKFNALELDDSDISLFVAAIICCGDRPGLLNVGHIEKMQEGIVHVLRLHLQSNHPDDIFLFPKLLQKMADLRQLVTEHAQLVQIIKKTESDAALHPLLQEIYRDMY
Procedure: The PPARδ activities of the R-form compound represented by formula 1 of the present invention and the S-form compound represented by formula 2 were measured by transfection assay. In addition, the selectivity to PPAR subtypes, PPARα and PPARγ, was examined. Cytotoxicity was tested by MTT assay and in vivo activity and toxicity was investigated by animal experiment using mice.
CV-1 cells were used in this assay. The cells were inoculated in a 96-well plate containing DMEM supplemented with 10% FBS, DBS (delipidated) and 1% penicillin/streptomycin and cultured in a 37 °C, 5% CO2 incubator. The experiment was performed according to the steps of inoculation, transfection, sample treatment and confirmation. Particularly, CV-1 cells were inoculated in a 96 well-plate (5000 cells/well), followed by transfection 24 hours later. Full length PPARs plasmid DNA, reporter DNA confirming PPARs activity owing to its luciferase activity, β-galactosidase DNA providing information on transfection efficiency, and transfection reagent were used for the transfection. The compounds of formula 1 and formula 2 were dissolved in dimethylsulfoxide (DMSO), which were treated to the cells via media at different concentrations. […] Luciferase activity and β-galactosidaseactivity were measured with Luminometer and a microplate reader. […] A graph was made with those values and EC50 was calculated.

ApoE−/− mouse = experiment: Arteriosclerosis inhibiting effect, Sudan IV plaque staining; format: in vivo; conditions: 2 mg/kg/day oral, high fat high cholesterol feeds, 28 days
Procedure: In vivo animal test using ApoE−/− mouse, which is an animal model for arteriosclerosis, was performed to confirm the arteriosclerosis inhibiting effect of the compound of the present invention. The animals were orally administered with 2 mg/kg/day of the compound of formula 1 of the present invention while feeding with high fat, high cholesterol feeds (20% fat, 1.25% cholesterol; AIN-93G diet). 28 days later, plaque staining was performed over the whole artery using Sudan IV to investigate the arteriosclerosis inhibiting effect of the compound by comparing the results between experimental and control groups. As a result, arteriosclerosis was 30% inhibited in ApoE−/− mouse treated with the compound of formula 1 of the present invention, compared with the control.

[3] = 10 mg/Kg/day oral to pregnant mice
[4] = 10 mg/Kg/day oral to pregnant mice, pregnancy
[5] = 10 mg/Kg/day oral, Pregnancy + lactation

SMILES: Cc1cc(S[C@H](Cc2ccccc2)c2sc(-c3ccc(C(F)(F)F)cc3)nc2C)ccc1OCC(=O)O (racemic) [formula 1]
- Results of water maze test (C57BL/6 mice [1]; Exercise (O), control 29 seconds): 13 s
- Results of water maze test (C57BL/6 mice [1]; Exercise (X), control 36 seconds): 25 s
- weight increase (C57BL/6 mice [2]): 23.1%
- muscle colour after removing skin (mice; [3]): red
- weight gain and growth rate of fetuses versus control (mice; [3]): not much different
- Increasing rate (treatment group/control group), length (mice; [4]): 2.4 times
- Increasing rate (treatment group/control group), time (mice; [4]): 2.3 times
- Increasing rate (treatment group/control group), length (mice; [5]): 3.0 times
- Increasing rate (treatment group/control group), time (mice; [5]): 2.9 times
- Increasing rate (treatment group/control group), length (mice; 10 mg/Kg/day oral, lactation): 2.2 times
- Increasing rate (treatment group/control group), time (mice; 10 mg/Kg/day oral, lactation): 2.1 times
- type I muscle fiber (mice; ATPase staining and immunostaining): increased
- running time (mice; treadmill test): much extended
- EC50 PPARα (PPARα): ia
- arteriosclerosis inhibition compared with the control (ApoE−/− mouse): 30%
